Data as given in US20120022116A1, “COMPOSITIONS AND METHODS FOR THE TREATMENT OF PATHOLOGICAL CONDITION(S) RELATED TO GPR35 AND/OR GPR35-HERG COMPLEX” (priority 2010, published 2012).
Entries after “also recorded” stand apart in the source; their conditions may differ. Read-outs that look alike come from different tables or passages of the source.

Tests used:
GPR35 [1] = assay: DMR desensitization / antagonism mode against GPR35 agonist-induced DMR in HT29 cells; type: cell-based, human; conditions: for Desenstization to GPR35 agonist: HT29 cells pretreated with compound, then GPR35 agonist
GPR35 [2] = target: T1, GPR35 (Homo sapiens, UniProt Q9HC97); assay: Ca2+ mobilization assay (Fluo-4) in HEK-GPR35-Gqo5 cells; type: cell-based; conditions: for Ca2+ moblization (HEK-GPR35-Gqo5): HEK293 cells co-expressing GPR35 and Gqo5, Fluo-4, compounds 10 μM; for Ca2+ mobilization signal in cells co-expressing GPR35 and Gqo5: engineered HEK293, 10 μM
T1 construct: myc; expressed in transfected cells; host or cells: HEK293, transient co-transfection (Lipofectamine LTX)
T1 sequence (Q9HC97 whole entry): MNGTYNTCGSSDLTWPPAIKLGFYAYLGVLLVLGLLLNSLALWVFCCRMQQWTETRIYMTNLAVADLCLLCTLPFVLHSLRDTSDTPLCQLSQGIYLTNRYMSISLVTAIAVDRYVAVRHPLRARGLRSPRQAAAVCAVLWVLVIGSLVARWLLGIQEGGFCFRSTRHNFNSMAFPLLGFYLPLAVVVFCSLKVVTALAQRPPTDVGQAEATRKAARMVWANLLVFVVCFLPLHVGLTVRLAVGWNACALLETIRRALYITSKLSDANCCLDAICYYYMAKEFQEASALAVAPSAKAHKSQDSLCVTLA

hERG channel [3] = target: T2, hERG channel (Homo sapiens, UniProt Q12809); assay: Automated patch clamp recording of hERG tail current (IonWorks); conditions: hERG tail current ratio post/pre-compound, 50 uM
T2 sequence (Q12809 whole entry): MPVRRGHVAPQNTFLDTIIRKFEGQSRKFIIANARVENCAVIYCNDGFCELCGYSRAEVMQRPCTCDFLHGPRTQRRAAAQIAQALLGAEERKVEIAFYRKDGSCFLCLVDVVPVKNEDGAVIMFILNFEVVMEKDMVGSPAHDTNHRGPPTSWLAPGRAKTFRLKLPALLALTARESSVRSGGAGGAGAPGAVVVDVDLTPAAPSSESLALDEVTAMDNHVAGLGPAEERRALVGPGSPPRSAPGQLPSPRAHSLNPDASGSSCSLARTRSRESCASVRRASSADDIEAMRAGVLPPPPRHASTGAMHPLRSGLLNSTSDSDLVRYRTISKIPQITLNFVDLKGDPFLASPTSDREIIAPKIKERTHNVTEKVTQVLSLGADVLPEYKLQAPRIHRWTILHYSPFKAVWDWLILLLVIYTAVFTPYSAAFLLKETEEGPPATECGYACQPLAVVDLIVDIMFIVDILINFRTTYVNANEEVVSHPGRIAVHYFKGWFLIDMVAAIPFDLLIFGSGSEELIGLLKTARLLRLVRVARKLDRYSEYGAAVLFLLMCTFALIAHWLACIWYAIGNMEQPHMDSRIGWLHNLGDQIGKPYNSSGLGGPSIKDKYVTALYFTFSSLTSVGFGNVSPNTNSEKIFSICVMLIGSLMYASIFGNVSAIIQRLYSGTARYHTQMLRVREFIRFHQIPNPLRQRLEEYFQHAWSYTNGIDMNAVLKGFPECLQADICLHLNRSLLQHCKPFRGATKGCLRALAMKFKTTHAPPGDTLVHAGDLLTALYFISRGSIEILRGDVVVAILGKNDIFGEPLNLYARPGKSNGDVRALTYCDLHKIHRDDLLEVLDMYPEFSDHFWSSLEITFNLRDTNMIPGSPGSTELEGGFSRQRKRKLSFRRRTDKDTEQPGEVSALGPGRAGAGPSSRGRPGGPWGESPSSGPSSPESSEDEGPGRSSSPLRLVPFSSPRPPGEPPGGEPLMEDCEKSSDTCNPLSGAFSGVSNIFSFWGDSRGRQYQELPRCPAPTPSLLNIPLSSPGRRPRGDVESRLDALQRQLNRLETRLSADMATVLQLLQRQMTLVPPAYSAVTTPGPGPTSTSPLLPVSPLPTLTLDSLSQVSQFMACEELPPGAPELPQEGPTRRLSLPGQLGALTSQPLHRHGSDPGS

GPR35 [4] = assay: GPR35 receptor internalization, immunofluorescence confocal imaging in HT29 cells; type: cell-based, human; conditions: anti-GPR35 antibody
Description: HT29 cells were plated on a 8-well chamber slide (10,000 cells/well) and incubated at 37° C. for 24 hrs. Next day, cells were fixed with 4% formaldehyde in 1×PBS for 15 min, followed by blocking and permeabilization in a buffer that contains 4% goat serum, 0.1% BSA, 0.1% Triton X100 in 1×PBS for 2 hrs. After 5 min wash with PBS, fixed cells were incubated with primary antibody anti-GPR35 (Abcam) (1:300) in 3% BSA/PBS buffer for 24 hrs, followed by incubation with secondary antibody Alexa Fluor® 488 goat anti-rabbit IgG (H+L) (Invitrogen) (1:250) in 3% BSA/PBS for 1 hr at room temperature. Cells were finally washed once with PBS and sealed with 1.5 mm thick glass cover-slip. Dried slides were stored at 4° C. until imaging. Confocal imaging was performed with Zeiss confocal microscope Axiovert 40. […] Confocal images were analyzed using MacBiophotonics Image J software (http://www.macbiophotonics.ca/downloads.htm).
HT29 cells were plated on a 8-well chamber slide (10,000 cells/well) and incubated at 37° C. for 24 hrs. […] Confocal images were analyzed using MacBiophotonics Image J software (http://www.macbiophotonics.ca/downloads.htm).
HT29 cells were plated on a 8-well chamber slide (10,000 cells/well) and incubated at 37° C. for 24 hrs. […] Confocal images were analyzed using MacBiophotonics Image J software (http://www.macbiophotonics.ca/downloads.htm). […]

HT29 cells [5] = assay: Fluo-4 Ca2+ mobilization assay in native HT29 cells; type: cell-based, human; conditions: Fluo-4 assay, 10 micromolar
Description: (§1) Fluo-4 Direct™ Calcium Assay Kit was purchased from Invitrogen (Starter pack, Cat. no. F10471). HEK293 cells (15000 cells/well) and HT29 cells (30000 cells/well) were seeded in polyD-lysine coated 384well plates (Corning Inc., Cat#3845), culture overnight at 37° C. The next day, Ca^2+ flux assay was performed following manufacturer's instruction and fluorescence ratio (340 nm/380 nm) was measured on FDSS (Functional Drug Screening System, Hamamatsu Photonics, Japan). Compounds were prepared as 10× stock (final concentration 10 μM) in the Ca^2+ assay buffer.
as §1, with “384 well” for “384well”, “Cat#3845) and cultured” for “Cat#3845), culture”, “day, the” for “day,”

[6] = tested on: HEK293 cells expressing only Gqo5 or GPR35; assay: Ca2+ mobilization assay in HEK293 cells expressing only Gqo5 or only GPR35; type: cell-based, human; conditions: engineered HEK293, 10 μM
Description: (§2) Ca^2+ flux assay with transient transfected cells were carried out in 96-well plates (Corning Inc, Cat#3664). HEK293 cells (25000 cells/well) were seeded on day 1. Cells were transfected with either myc-GPR35 or HA-Gqo5 or co-transfected with both plasmids (myc-GPR35/HA-Gqo5 DNA ratio 2:1) using Lipofectamine LTX (Invitrogen) on day 2. Ca^2+ flux assay was performed 24 hours after transfection.
as §2, with “assays” for “assay”, “assays were” for “assay was”

HT29 cells [7] = assay: cAMP-Glo assay in HT29 cells; type: cell-based, human; conditions: for increase in intracellular cAMP concentration: HT29 cells, Gs readout; for suppression in intracellular cAMP concentration: forskolin co-stimulated HT29 cells, Gi readout
Description: (§3) Cells were plated in 384well plates (BD Bioscience, Cat#354660) (10000 cells/well for HEK293, 20000 cells/well for HT29). Cells were cultured in complete growth medium overnight. The next day cAMP-Glo assay was performed according to manufacturer's instruction (Promega, Cat#V1502). Cells were incubated with 20 μM compounds in induction buffer with or without 0.5 μM or 5 μM forskolin for 30 minutes before adding lysis buffer. Luminescence was measured using Tecan SafireII reader.
as §3, with “384 well” for “384well”, “Cat# 354660)” for “Cat#354660)”, “Cat#V 1502).” for “Cat#V1502).”
as §3, with “in 384 well” for “in 384well”, “Bioscience, Cat# 354660)” for “Bioscience, Cat#354660)”, “HT29). The cells” for “HT29). Cells”, “day a” for “day”, “Cat#V1502). The cells” for “Cat#V1502). Cells”

hERG channel [8] = target: T2, hERG channel
hERG channel [9] = tested on: hERG channel
hERG channel [10] = assay: Cross-desensitization DMR assay against hERG activator mallotoxin-induced DMR in HT29 cells
HEK-293 cells = assay: DMR assay in parental HEK-293 cells; type: cell-based, human; conditions: zaprinast 10 μM
hERG channel [11] = target: T2, hERG channel; design: expressed in transfected cells; conditions: 10 μM; cited from earlier work
HEK-hERG cells [12] = assay: DMR assay in HEK-hERG cells; conditions: zaprinast 10 μM
HEK-hERG cells [13] = tested on: HEK-hERG cells
[14] = listed as 6-bromo-3-methylthieno[3,2-b]thiophene-2-carboxylic acid

Cc1c(C(=O)O)sc2c(Br)csc12 [Compound 13, 3-methyl-6-bromo-thieno[3,2-b]thiophene-2-carboxylic acid]
Desenstization to GPR35 agonist (GPR35 [1]): desenstized
desensitization / attenuation of the GPR35 agonist (zaprinast, NPPB) DMR signal in HT29 cells (GPR35 [1]; pretreatment, zaprinast 400 nM): caused desensitization
Ca2+ moblization (HEK-GPR35-Gqo5) (GPR35 [2]): inactive
Ca2+ mobilization signal in cells co-expressing GPR35 and Gqo5 (GPR35 [2]): triggered quite obvious Ca^2+ signal
Electrophysiology (HEK-hERG) (hERG channel [3]): activator
GPR35 receptor internalization (GPR35 [4]; [14]): underwent internalization; also recorded: caused receptor internalization
Ca2+ mobilization signal in HT29 cells (HT29 cells [5]; [14]): unable to cause any detectable Ca^2+ signal
Ca2+ mobilization signal in cells expressing only Gqo5 or GPR35 [6]: failed to cause any obvious Ca^2+ mobilization signal
increase in intracellular cAMP concentration (HT29 cells [7]): neither zaprinast nor 6-bromo-3-methylthieno[3,2-b]thiophene-2-carboxylic acid was able to cause increase in intracellular cAMP concentration
suppression in intracellular cAMP concentration (HT29 cells [7]): neither zaprinast nor 6-bromo-3-methylthieno[3,2-b]thiophene-2-carboxylic acid cause any suppression in intracellular cAMP concentration

O=[N+]([O-])c1cc2nc(O)c(O)nc2cc1[N+](=O)[O-] [DNQX]
Desenstization to GPR35 agonist (GPR35 [1]): desenstized
Ca2+ moblization (HEK-GPR35-Gqo5) (GPR35 [2]): active
Ca2+ mobilization signal in cells co-expressing GPR35 and Gqo5 (GPR35 [2]): active
Electrophysiology (HEK-hERG) (hERG channel [8]): inactive
Desenstization to hERG activator (hERG channel [9]): partially desenstized

CC(=O)c1c(O)c(C)c(O)c(Cc2c(O)c3c(c(C(=O)/C=C/c4ccccc4)c2O)OC(C)(C)C=C3)c1O [Mallotoxin, mallotoxin]
desensitization / attenuation of the GPR35 agonist (zaprinast, NPPB) DMR signal in HT29 cells (GPR35 [1]): dose-dependently, partially inhibited; also recorded: partially attenuate; also recorded: dose-dependently desensitized
Desenstization to GPR35 agonist (GPR35 [1]): desenstized
Desenstization to hERG activator (hERG channel [10]; HT29 cells pretreated with compound, then hERG activator mallotoxin): desenstized
DMR signal in HEK-293 cells (HEK-293 cells): no detectable DMR signal (i.e., net-zero DMR)
Electrophysiology (HEK-hERG) (hERG channel [3]): activator
shift of the half maximal activation voltage (V1/2) to the hyperpolarizing direction (hERG channel [11]): more than 25 mV

Cc1cccc(Nc2ccccc2C(=O)O)c1C [Mefenamic Acid]
Desenstization to GPR35 agonist (GPR35 [1]): desenstized
Ca2+ moblization (HEK-GPR35-Gqo5) (GPR35 [2]): inactive
Desenstization to hERG activator (hERG channel [9]): partially desenstized

CCCOc1ccccc1-c1nc2nn[nH]c2c(=O)[nH]1 [zaprinast]
Desenstization to GPR35 agonist (GPR35 [1]): desenstized
desensitization / attenuation of the GPR35 agonist (zaprinast, NPPB) DMR signal in HT29 cells (GPR35 [1]; pretreatment, zaprinast 400 nM): dose-dependently caused desensitization
attenuation of the mallotoxin DMR signal in HT29 cells (hERG channel [10]; pretreatment, mallotoxin 16 micromolar): dose-dependently, partially attenuated; also recorded: partially attenuate; also recorded: dose-dependently desensitized
Ca2+ moblization (HEK-GPR35-Gqo5) (GPR35 [2]): active
Ca2+ mobilization signal in cells co-expressing GPR35 and Gqo5 (GPR35 [2]): triggered quite obvious Ca^2+ signal; also recorded: triggered a detectable Ca^2+ mobilization signal; also recorded: active
DMR signal in HEK-293 cells (HEK-293 cells): net-zero DMR signal
Electrophysiology (HEK-hERG) (hERG channel [3]): inactive
GPR35 receptor internalization (GPR35 [4]): underwent internalization; also recorded: caused receptor internalization; also recorded: significant receptor internalization
DMR signal in HEK-hERG cells (HEK-hERG cells [12]): net-zero DMR signal
Ca2+ mobilization signal in HT29 cells (HT29 cells [5]): failed to cause any significant Ca^2+ mobilization; also recorded: unable to cause any detectable Ca^2+ signal; also recorded: did not result in any detectable Ca^2+ mobilization signal
Ca2+ mobilization signal in HT29 cells (HT29 cells [5]; listed as Zaprinast): did not result in any detectable Ca^2+ mobilization signal
Ca2+ mobilization signal in cells expressing only Gqo5 or GPR35 [6]: failed to cause any obvious Ca^2+ mobilization signal; also recorded: not in either parental cell, or the engineered cells expressing either GPR35 or Gqo5
impact on the mallotoxin DMR signal in HEK-hERG cells (HEK-hERG cells [13]): little or no impact
increase in intracellular cAMP concentration (HT29 cells [7]): neither zaprinast nor 6-bromo-3-methylthieno[3,2-b]thiophene-2-carboxylic acid was able to cause increase in intracellular cAMP concentration
suppression in intracellular cAMP concentration (HT29 cells [7]): neither zaprinast nor 6-bromo-3-methylthieno[3,2-b]thiophene-2-carboxylic acid cause any suppression in intracellular cAMP concentration
